Series [1] is described as follows: Metabolic stability in human liver microsomes assessed as parent compound remaining incubated for 10 mins. Format: ADME. Conditions: read-out: Stability. In general terms: Liver microsomes are vesicles of endoplasmic reticulum, rich in cytochrome P450 enzymes.
Series [2] has as its target T1, Nuclear receptor ROR-gamma (Homo sapiens, UniProt P51449).
T1 sequence (P51449 whole entry): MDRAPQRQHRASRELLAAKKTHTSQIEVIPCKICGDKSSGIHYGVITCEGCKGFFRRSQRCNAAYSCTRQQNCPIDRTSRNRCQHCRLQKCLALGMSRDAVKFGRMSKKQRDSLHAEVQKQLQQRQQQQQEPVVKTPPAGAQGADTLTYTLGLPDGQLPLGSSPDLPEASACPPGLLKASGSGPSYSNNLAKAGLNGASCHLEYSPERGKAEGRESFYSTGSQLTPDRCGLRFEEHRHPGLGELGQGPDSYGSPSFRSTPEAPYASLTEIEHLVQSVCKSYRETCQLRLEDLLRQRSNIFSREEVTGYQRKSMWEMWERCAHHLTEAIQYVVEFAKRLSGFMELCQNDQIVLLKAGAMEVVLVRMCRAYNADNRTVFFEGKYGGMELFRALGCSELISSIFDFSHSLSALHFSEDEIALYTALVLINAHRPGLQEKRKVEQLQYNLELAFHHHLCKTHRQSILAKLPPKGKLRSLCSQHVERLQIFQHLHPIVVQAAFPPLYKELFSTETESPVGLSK
Description: Inhibition of human RORgamma ligand binding domain (Serine 253 to Lysine 518 residues) expressed in CHOK1 cells incubated for 2 days by Gal4 luciferase reporter gene assay

Series [3] deals with T1, Nuclear receptor ROR-gamma. The series is described as follows: Inhibition of human GST-tagged RORgamma ligand binding domain (253 to 518 residues) expressed in sf9 cells using biotin-EEPSLLKKLLLAPA by FRET assay.
The target of series [4] is T2, Nuclear receptor ROR-gamma (Mus musculus, UniProt P51450).
T2 sequence (P51450 whole entry): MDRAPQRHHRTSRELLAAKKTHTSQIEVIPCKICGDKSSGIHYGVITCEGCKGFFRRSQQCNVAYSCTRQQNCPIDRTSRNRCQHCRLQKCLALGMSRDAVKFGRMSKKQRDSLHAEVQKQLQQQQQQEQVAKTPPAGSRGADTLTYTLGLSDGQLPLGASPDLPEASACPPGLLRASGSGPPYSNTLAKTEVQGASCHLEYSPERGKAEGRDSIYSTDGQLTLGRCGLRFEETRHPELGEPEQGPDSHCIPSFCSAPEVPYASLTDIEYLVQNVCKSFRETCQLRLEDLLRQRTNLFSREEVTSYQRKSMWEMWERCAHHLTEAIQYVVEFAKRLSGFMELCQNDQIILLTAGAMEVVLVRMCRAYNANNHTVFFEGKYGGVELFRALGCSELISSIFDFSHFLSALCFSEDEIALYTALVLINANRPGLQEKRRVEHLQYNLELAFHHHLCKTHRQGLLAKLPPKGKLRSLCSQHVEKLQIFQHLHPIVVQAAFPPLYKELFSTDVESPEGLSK
The series is described as follows: Inhibition of mouse RORgamma ligand binding domain (Isoleucine 251 to Lysine 516) expressed in CHOK1 cells incubated for 2 days by Gal4 luciferase reporter gene assay. Format: cell-based, CHO-K1. For orientation: A reporter such as luciferase makes a cellular process visible.

The next series addresses Cytochrome P450 3A4 (Homo sapiens, UniProt P08684). The series is described as follows: Inhibition of human CYP3A4.

Each structure is given as a SMILES string.

By EC50 is commonly meant the midpoint of the concentration-response curve. Low values mean greater potency, high ones weaker potency. A word on the IC50: it is the concentration that inhibits the measured activity by half.

Chain of Cytochrome P450 3A4 (P08684 whole entry): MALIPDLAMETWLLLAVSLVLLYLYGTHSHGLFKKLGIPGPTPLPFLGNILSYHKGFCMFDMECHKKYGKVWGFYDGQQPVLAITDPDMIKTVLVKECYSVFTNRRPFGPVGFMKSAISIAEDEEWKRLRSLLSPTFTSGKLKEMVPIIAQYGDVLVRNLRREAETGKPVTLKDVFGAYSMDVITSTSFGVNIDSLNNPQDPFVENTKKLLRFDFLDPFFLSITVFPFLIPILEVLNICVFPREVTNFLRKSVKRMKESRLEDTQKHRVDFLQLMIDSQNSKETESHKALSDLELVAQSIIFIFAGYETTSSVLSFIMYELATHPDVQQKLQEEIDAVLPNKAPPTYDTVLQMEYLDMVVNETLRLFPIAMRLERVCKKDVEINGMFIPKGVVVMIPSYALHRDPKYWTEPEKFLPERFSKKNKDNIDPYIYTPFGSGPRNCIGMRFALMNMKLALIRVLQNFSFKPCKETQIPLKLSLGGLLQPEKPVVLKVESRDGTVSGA

Take `CCn1c(SCC(=O)Nc2cccc3ccccc23)nnc1C1Cc2ccccc2C1`: in series [1], the remaining at 10 min came to 18%. Moreover, the concentration giving a half-maximal response (EC50) in series [2] is 1700 nM; in series [3], 850 nM; in series [4], 700 nM. Further, the IC50 at Cytochrome P450 3A4 was 4 µM.

Source of the values: ChEMBL document CHEMBL3774309, “SAR Exploration Guided by LE and Fsp(3): Discovery of a Selective and Orally Efficacious RORγ Inhibitor” (ACS Med Chem Lett, 2016).
